According to patent EP3623369A1, “NOVEL MORPHOLINYL AMINE COMPOUNDS FOR THE TREATMENT OF AUTOIMMUNE DISEASE” (F. Hoffmann-La Roche AG, priority 2018, dated 2020):

The compounds below were run against T1, hTLR7 (Homo sapiens, UniProt Q9NYK1) (assay: HEK293-Blue-hTLR-7 cells assay (SEAP reporter, R848 stimulation)). Settings: HEK293-Blue-hTLR7 cells, R848, 20 hrs; 0.003 is the lowest tested concentration; read-out: HEK/hTLR7 IC50.
T1 sequence (Q9NYK1 27-1049): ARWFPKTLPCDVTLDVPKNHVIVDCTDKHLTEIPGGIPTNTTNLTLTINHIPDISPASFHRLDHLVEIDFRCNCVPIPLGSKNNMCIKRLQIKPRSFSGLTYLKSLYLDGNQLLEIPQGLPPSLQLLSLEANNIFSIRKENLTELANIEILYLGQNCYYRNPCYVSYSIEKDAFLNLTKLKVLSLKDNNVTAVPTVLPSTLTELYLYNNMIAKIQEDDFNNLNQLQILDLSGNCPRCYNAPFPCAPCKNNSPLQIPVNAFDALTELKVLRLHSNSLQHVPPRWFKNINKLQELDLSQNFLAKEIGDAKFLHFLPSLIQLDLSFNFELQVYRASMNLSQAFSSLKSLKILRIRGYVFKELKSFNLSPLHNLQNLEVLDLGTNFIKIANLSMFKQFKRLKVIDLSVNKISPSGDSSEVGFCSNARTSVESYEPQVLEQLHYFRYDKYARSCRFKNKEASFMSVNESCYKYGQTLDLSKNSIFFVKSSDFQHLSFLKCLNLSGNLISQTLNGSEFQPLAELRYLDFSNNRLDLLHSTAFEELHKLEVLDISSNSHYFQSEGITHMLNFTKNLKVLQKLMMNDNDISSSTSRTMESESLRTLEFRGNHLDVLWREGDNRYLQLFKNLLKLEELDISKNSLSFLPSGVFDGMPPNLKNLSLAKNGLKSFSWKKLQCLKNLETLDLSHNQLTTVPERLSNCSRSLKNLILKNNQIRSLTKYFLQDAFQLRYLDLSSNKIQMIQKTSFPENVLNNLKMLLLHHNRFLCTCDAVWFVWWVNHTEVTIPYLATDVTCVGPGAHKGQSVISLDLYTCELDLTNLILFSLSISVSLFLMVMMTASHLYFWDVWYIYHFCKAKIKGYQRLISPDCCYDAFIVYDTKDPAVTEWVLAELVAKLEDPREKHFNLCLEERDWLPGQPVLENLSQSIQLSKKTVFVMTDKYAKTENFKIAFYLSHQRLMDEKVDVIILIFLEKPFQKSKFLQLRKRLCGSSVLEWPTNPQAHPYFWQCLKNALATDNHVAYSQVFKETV
Format: cell-based
Experimental: The following tests were carried out in order to determine the activity of the compounds of formula (I) or (Ia) in HEK293-Blue-hTLR-7/8/9 cells assay.
HEK293-Blue-hTLR-7 cells assay:
A stable HEK293-Blue-hTLR-7 cell line was purchased from InvivoGen (Cat.#: hkb-htlr7, San Diego, California, USA). These cells were originally designed for studying the stimulation of human TLR7 by monitoring the activation of NF-κB. A SEAP (secreted embryonic alkaline phosphatase) reporter gene was placed under the control of the IFN-β minimal promoter fused to five NF-κB and AP-1-binding sites. The SEAP was induced by activating NF-κB and AP-1 via stimulating HEK-Blue hTLR7 cells with TLR7 ligands. Therefore the reporter expression was declined by TLR7 antagonist under the stimulation of a ligand, such as R848 (Resiquimod), for incubation of 20 hrs. The cell culture supernatant SEAP reporter activity was determined using QUANTI-Blue™ kit (Cat.#: rep-qb1, Invivogen, San Diego, Ca, USA) at a wavelength of 640 nm, a detection medium that turns purple or blue in the presence of alkaline phosphatase.
HEK293-Blue-hTLR7 cells were incubated at a density of 250,000∼450,000 cells/mL in a volume of 170 µL in a 96-well plate in Dulbecco's Modified Eagle's medium (DMEM) containing 4.5 g/L glucose, 50 U/mL penicillin, […], […], 2 mM L-glutamine, 10% (v/v) heat-inactivated fetal bovine serum with addition of 20 µL test compound in a serial dilution in the presence of final DMSO at 1% and 10 µL of 20uM R848 in above DMEM, perform incubation under 37 °C in a CO2 incubator for 20 hrs. Then 20 µL of the supernatant from each well was incubated with 180 µL Quanti-blue substrate solution at 37 °C for 2 hrs and the absorbance was read at 620∼655 nm using a spectrophotometer. The signalling pathway that TLR7 activation leads to downstream NF-κB activation has been widely accepted, and therefore similar reporter assay was modified for evaluating TLR7 antagonist.

IC50	Compound
20 nM	5-[(2S,6R)-2-[[5-[3-(hydroxymethyl)piperazin-1-yl]isoindolin-2-yl]methyl]-6-methyl-morpholin-4-yl]quinoline-8-carbonitrile [Example 85]
125 nM	C[C@@H]1CN(c2ccc3c(c2)CN(C[C@H]2CN(c4ccc(C#N)c5ncccc45)C[C@@H](C)O2)C3)C[C@@H](C)N1 (mixture of isomers) [Example 57, Trans-5-[(2R,6S)-2-methyl-6-[[5-[3,5-dimethylpiperazin-1-yl]isoindolin-2-yl]methyl]morpholin-4-yl]quinoline-8-carbonitrile]
56 nM	C[C@@H]1CN(c2ccc(C#N)n3nccc23)C[C@H](CN2Cc3ccc(N4CCNCC4)cc3C2)O1 [Example 4, 4-[(2R,6S)-2-methyl-6-[(5-piperazin-1-ylisoindolin-2-yl)methyl]morpholin-4-yl]pyrazolo[1,5-a]pyridine-7-carbonitrile]
206 nM	C[C@@H]1CN(c2ccc(C#N)n3nccc23)C[C@H](CN2Cc3ccc(C4CCNCC4)cc3C2)O1 [Example 8, 4-[(2R,6S)-2-methyl-6-[[5-(4-piperidyl)isoindolin-2-yl]methyl]morpholin-4-yl]pyrazolo[1,5-a]pyridine-7-carbonitrile]
195 nM	C[C@@H]1CN(c2ccc(C#N)n3nccc23)C[C@H](CN2Cc3ccc(C4CCNC4)cc3C2)O1 (stereo partly drawn) [Example 9, 4-[(2R,6S)-2-methyl-6-[(5-pyrrolidin-3-ylisoindolin-2-yl)methyl]morpholin-4-yl]pyrazolo[1,5-a]pyridine-7-carbonitrile]
81 nM	C[C@@H]1CN(c2ccc(C#N)n3nccc23)C[C@H](CN2CCc3cc(N4CCNCC4)ccc3C2)O1 [Example 10, 4-[(2R,6S)-2-methyl-6-[(6-piperazin-1-yl-3,4-dihydro-1H-isoquinolin-2-yl)methyl]morpholin-4-yl]pyrazolo[1,5-a]pyridine-7-carbonitrile]
192 nM	C[C@@H]1CN(c2ccc(C#N)n3nccc23)C[C@H](CN2CCc3ccc(N4CCNCC4)cc3C2)O1 [Example 11, 4-[(2R,6S)-2-methyl-6-[(7-piperazin-1-yl-3,4-dihydro-1H-isoquinolin-2-yl)methyl]morpholin-4-yl]pyrazolo[1,5-a]pyridine-7-carbonitrile]
< 3 nM	C[C@@H]1CN(c2ccc(C#N)c3nccnc23)C[C@H](CN2Cc3ccc(N4CCNCC4)cc3C2)O1 [Example 12, 8-[(2R,6S)-2-methyl-6-[(5-piperazin-1-ylisoindolin-2-yl)methyl]morpholin-4-yl]quinoxaline-5-carbonitrile]
3 nM	C[C@@H]1CN(c2ccc(C#N)c3nccnc23)C[C@H](CN2CCc3cc(N4CCNCC4)ccc3C2)O1 [Example 13, 8-[(2R,6S)-2-methyl-6-[(6-piperazin-1-yl-3,4-dihydro-1H-isoquinolin-2-yl)methyl]morpholin-4-yl]quinoxaline-5-carbonitrile]
21 nM	C[C@@H]1CN(c2ccc(C#N)n3ncc(F)c23)C[C@H](CN2CCc3cc(N4CCNCC4)ccc3C2)O1 [Example 14, 3-fluoro-4-[(2R,6S)-2-methyl-6-[(6-piperazin-1-yl-3,4-dihydro-1H-isoquinolin-2-yl)methyl]morpholin-4-yl]pyrazolo[1,5-a]pyridine-7-carbonitrile]
37 nM	C[C@@H]1CN(c2ccc(C#N)n3nccc23)C[C@H](CN2CCc3cc(N4CCN(C)CC4)ccc3C2)O1 [Example 15, 4-[(2R,6S)-2-methyl-6-[[6-(4-methylpiperazin-1-yl)-3,4-dihydro-1H-isoquinolin-2-yl]methyl]morpholin-4-yl]pyrazolo[1,5-a]pyridine-7-carbonitrile]
65 nM	C[C@@H]1CN(c2ccc(C#N)n3nccc23)C[C@H](CN2Cc3ccc(N4CCN(C)CC4)cc3C2)O1 [Example 17, 4-[(2R,6S)-2-methyl-6-[[5-(4-methylpiperazin-1-yl)isoindolin-2-yl]methyl]morpholin-4-yl]pyrazolo[1,5-a]pyridine-7-carbonitrile]
68 nM	C[C@@H]1CN(c2ccc(C#N)n3nccc23)C[C@H](CN2Cc3cc(N4CCNCC4)cnc3C2)O1 [Example 18, 4-[(2R,6S)-2-methyl-6-[(3-piperazin-1-yl-5,7-dihydropyrrolo[3,4-b]pyridin-6-yl)methyl]morpholin-4-yl]pyrazolo[1,5-a]pyridine-7-carbonitrile]
14 nM	C[C@@H]1CN(c2ccc(C#N)c3ncccc23)C[C@H](CN2Cc3cc(N4CCNCC4)cnc3C2)O1 [Example 20, 5-[(2R,6S)-2-methyl-6-[(3-piperazin-1-yl-5,7-dihydropyrrolo[3,4-b]pyridin-6-yl)methyl]morpholin-4-yl]quinoline-8-carbonitrile]
6 nM	C[C@@H]1CN(c2ccc(C#N)c3ncsc23)C[C@H](CN2Cc3ccc(N4CCNCC4)cc3C2)O1 [Example 23, 7-[(2R,6S)-2-methyl-6-[(5-piperazin-1-ylisoindolin-2-yl)methyl]morpholin-4-yl]-1,3-benzothiazole-4-carbonitrile]
9 nM	C[C@@H]1CN(c2ccc(C#N)c3ncsc23)C[C@H](CN2CCc3cc(N4CCNCC4)ccc3C2)O1 [Example 24, 7-[(2R,6S)-2-methyl-6-[(6-piperazin-1-yl-3,4-dihydro-1H-isoquinolin-2-yl)methyl]morpholin-4-yl]-1,3-benzothiazole-4-carbonitrile]
11 nM	C[C@@H]1CN(c2ccc(C#N)c3ncsc23)C[C@H](CN2Cc3cc(N4CCNCC4)cnc3C2)O1 [Example 25, 7-[(2R,6S)-2-methyl-6-[(3-piperazin-1-yl-5,7-dihydropyrrolo[3,4-b]pyridin-6-yl)methyl]morpholin-4-yl]-1,3-benzothiazole-4-carbonitrile]
227 nM	C[C@@H]1CN(c2ccc(C#N)n3nccc23)C[C@H](CN2Cc3ccc(OCCN(C)C)cc3C2)O1 [Example 28, 4-[(2S,6R)-2-[[5-[2-(dimethylamino)ethoxy]isoindolin-2-yl]methyl]-6-methyl-morpholin-4-yl]pyrazolo[1,5-a]pyridine-7-carbonitrile]
49 nM	C[C@@H]1CN(c2ccc(C#N)n3ncc(F)c23)C[C@H](CN2Cc3cc(N4CCNCC4)cnc3C2)O1 [Example 29, 3-fluoro-4-[(2R,6S)-2-methyl-6-[(3-piperazin-1-yl-5,7-dihydropyrrolo[3,4-b]pyridin-6-yl)methyl]morpholin-4-yl]pyrazolo[1,5-a]pyridine-7-carbonitrile]
16 nM	C[C@@H]1CN(c2ccc(C#N)c3nccnc23)C[C@H](CN2Cc3cc(N4CCNCC4)cnc3C2)O1 [Example 30, 8-[(2R,6S)-2-methyl-6-[(3-piperazin-1-yl-5,7-dihydropyrrolo[3,4-b]pyridin-6-yl)methyl]morpholin-4-yl]quinoxaline-5-carbonitrile]
29 nM	C[C@@H]1CN(c2ccc(Cl)c3ncccc23)C[C@H](CN2Cc3ccc(N4CCNCC4)cc3C2)O1 [Example 31, (2R,6S)-4-(8-chloro-5-quinolyl)-2-methyl-6-[(5-piperazin-1-ylisoindolin-2-yl)methyl]morpholine]

Compound	IC50
3-fluoro-4-[(2R,6S)-2-methyl-6-[(5-piperazin-1-ylisoindolin-2-yl)methyl]morpholin-4-yl]pyrazolo[1,5-a]pyridine-7-carbonitrile [Example 7]	42 nM
